Assay results from patent publication US20200069775A1, “BRAIN OSTEOCALCIN RECEPTOR AND COGNITIVE DISORDERS” (The Trustees of Columbia University in the City of New York, priority 2017, published 2020).

Legend:
3 month-old WT mice = assay: Alendronate treatment with or without osteocalcin, MWMT and NOR; type: in vivo, mouse
Procedure: For plasma injection experiments, 100 μl of plasma were injected 8 times during 24 days, via tail vein. Each group described is represented individually in each panel. For osteocalcin delivery in WT mice, pumps (Alzet micro-osmotic pump, Model 1002) delivering osteocalcin (30 ng/hr for 12 month-old and 90 ng/hr for 16 month-old mice), or vehicle, were surgically installed subcutaneously in the back of mice. […] Control mice receiving vehicle or mice receiving alendronate were implanted with osmotic pumps delivering vehicle only.
Morris water maze test: Animals are transported to the testing room in their home cages, and left undisturbed for at least 30 minutes prior to the first trial. The maze is comprised of a large swimming pool (150cm diameter) filled with water (23° C.) made opaque with non-toxic white paint. The pool is located in a brightly lit room filled with visual cues, including geometric figures on the walls of the maze demarking the four fixed starting positions of the trials, at (12:00, 3:00, 6:00 and 9:00). A 15 cm round platform is hidden 1 cm beneath the surface of the water at a fixed position. Each daily trial block consisted of four swimming trials, with each mouse starting from the same randomly chosen starting position. The starting position is varied between days. On day 1, mice that fail to find the platform within 2 min are guided to the platform. They must remain on the platform for 15 s before they are returned to their home cage. Mice are not guided to the platform after day 1, and the time it takes them to reach the platform over repeated trials ([…] for the next 10 days) is recorded as a measure of spatial learning.
Novel object recognition test (NOR): The NOR paradigm assesses the rodent's ability to recognize a novel object in the environment. The NOR task will be conducted, as previously described7, in an opaque plastic box using 2 different objects: (1) a clear plastic funnel (diameter 8.5 cm, maximal height 8.5 cm) and (2) a black plastic box (9.5 cm^3). These objects elicit equal levels of exploration as determined in pilot experiments (Denny, C. A., et al., 2012, Hippocampus 22:1188-1201; Oury, F., et al., 2013, Cell 155:228-241). The NOR paradigm consists of 3 exposures over the course of 3 days. On day 1, the habituation phase, mice are given 5 minutes to explore the empty arena, without any objects. On day 2, the familiarization phase, mice are given 10 minutes to explore 2 identical objects, placed at opposite ends of the box. On day 3, the test phase, mice are given 15 minutes to explore 2 objects, one novel object and a copy of the object from the familiarization phase. The object that serves as the novel object (either the funnel or the box) as well as the left/right starting position of the objects are counterbalanced within each group. Mice are placed in the center of the arena at the start of each exposure. […] Preference for the novel object is assessed based on the fraction of time that a mouse spends exploring the novel object compared to the familiar object. Exploration is scored from video recordings of each exposure and recorded using the Stopwatch program. […]
Streptavidin were added for 30 minutes at room temperature followed by PBS washes. […] For hormonal measurement; circulating levels of the carboxylated, undercarboxylated or uncarboxylated forms of osteocalcin were measured by ELISA. CTX content in serum (ng/ml) were measured with specific ELISAs (RatLaps™ (CTX-I) EIA (Immunodiagnosticsystems).

[1] = tested on: brainstem neurons (dorsal raphe 5-HT neurons, locus coeruleus, GABAergic interneurons); assay: Whole cell current clamp recording in brainstem slices; type: cell-based, mouse; conditions: 3 μM, current clamp in slices
Procedure: Brain slice preparations and electrophysiological recordings were performed according to methods known in the art. Briefly, WT mice were anesthetized with ether and then decapitated. The brains were rapidly removed and immersed in an oxygenated bath solution at 40° C. containing (in mM): sucrose 220, KCl 2.5, CaCl2 1, MgC12 6, NaH2PO4 1.25, NaHCO3 26, and glucose 10 pH 7.3 with NaOH. Coronal slices (350 μm thick) containing dorsal raphe (DR) were cut on a vibratome and maintained in a holding chamber with artificial cerebrospinal fluid (ACSF) (bubbled with 5% CO2 and 95% O2) containing (in mM): NaCl 124, KCl 3, CaCl2 2, MgCl2 2, NaH2PO4 1.23, NaHCO3 26, glucose 10, pH 7.4 with NaOH, and were transferred to a recording chamber constantly perfused with bath solution (330 C) at 2 ml/min after at least a 1 hr recovery. Whole-cell current clamp was performed to observe action potentials in DR serotoninergic (5-HT) neurons with a Multiclamp 700A amplifier (Axon instrument, CA). Patch pipettes with a tip resistance of 4-6 MΩ were made of borosilicate glass (World Precision Instruments) with a Sutter pipette puller (P-97) and filled with a pipette solution containing (in mM): K-gluconate (or Cs-gluconate) 135, MgCl2 2, HEPES 10, EGTA 1.1, Mg-ATP 2, Na2-phosphocreatine 10, and Na2-GTP 0.3, pH 7.3 with KOH. After a giga-Ohm (GΩ) seal and whole-cell access were achieved, the series resistance (between 20 and 40 MΩ) was partially compensated by the amplifier. […] All data were sampled at 3-10 kHz and filtered at 1-3 kHz with an Apple Macintosh computer using Axograph 4.9 (Axon Instruments). Electrophysiological data were analyzed with Axograph 4.9 and plotted with Igor Pro software (WaveMetrics, Lake Oswego, Oreg.).

[2] = tested on: Tph2, Th, Gad1 expression in brainstem and midbrain explants; assay: Gene expression (qPCR) in brainstem and midbrain explants; type: cell-based, mouse; conditions: leptin positive control; WT or Gprc6a−/− brainstem explants
Procedure: For gene expression studies, RNA was isolated from primary neurons or tissue using TRIZOL® (Invitrogen). cDNA synthesis was performed following a standard protocol from Invitrogen and qPCR analyses were done using specific quantitative PCR primers from SABiosciences (http://www.sabiosciences.com/RT2PCR.php).
Brains were dissected and incubated for 30 minutes in ice cold oxygenated artificial cerebrospinal fluid (ACSF). Brains were then sliced at 500 μm at the midbrain, −1.55 to −2.35 mm from the bregma, and at the level of the brainstem, from −4.04 to −4.48 mm and from −4.60 to −5.20 mm from the bregma, to include the median and dorsal raphe, respectively. These slices were incubated in ACSF for 1 h, constantly oxygenated (95% O2 and 5% CO2) […], after which they were treated with either osteocalcin (10 ng/ml) or PBS for four hours. Expression of Tph2, TH, GAD 1, GAD2, and Ddc was measured by qPCR.
To determine if osteocalcin acts directly on neurons to modulate neurotransmitter synthesis, several types of assays were performed. First, brainstem and midbrain explants from WT and Gprc6a^−/− mice were generated. Brains were sliced (500 μm) at the level of the median and dorsal raphe of the brainstem (from −4.04 to −4.48 mm and from −4.60 to −5.20 mm, respectively), so that they would be enriched in serotonin-producing neurons, as well as at the level of substantia nigrae and ventral tegmental areas (VTA) of the midbrain (from −1.55 to −2.35 mm and from −2.55 to −3.25 mm, respectively). Enrichment in serotoninergic and catecholaminergic neurons in these explants was verified by their high Tph2 and Th expression. While leptin, used here as a positive control, reduced, as it should, Tph2 expression in WT or Gprc6a^−/− brainstem explants, osteocalcin ([…]) increased expression of this gene 2.5 fold in both WT and Gprc6a^−/− explants. (FIG. 3D). […] Third, to further confirm that osteocalcin signals in neurons of the hindbrain, calcium flux in MPHN treated with undercarboxylated or carboxylated osteocalcin (FIG. 3F) was measured.

[3] = Blood brain barrier crossing: subcutaneous pump infusion, content in blood, bone and brain parts by ELISA; type: in vivo, mouse; conditions: ob/ob mice, subcutaneous infusion 50 ng/hour, seven days; positive control
Procedure: Osteocalcin−/−, Gprc6a−/−, Osteocalcin-mCherry, and Osteocalcin foxed mice have been previously described (Ducy et al., 1996, Nature 382:448-452; Oury et al., 2011, Cell 144:796-809). Mouse genotypes were determined by PCR. For all experiments, controls were littermate female WT, Cre-expressing, or flox/flox. All mice were maintained on a pure 129-Sv genetic background except for the inducible deletion Osteocalcin model (mix background: 25% C57/BL6 and 75% 129sv). For inducible gene deletion mice, tamoxifen was prepared in corn oil and injected intraperitoneally (IP) (1 mg/20g of body weight) over one week. For osteocalcin delivery to pregnant mice, IP injections (240 ng/day) were performed as soon as a plug was present daily until delivery (E0.5-E18.5). For osteocalcin or leptin infusion in adult Osteocalcin−/− or ob/ob mice, pumps (Alzet micro-osmotic pump, Model 1002) delivering osteocalcin (300 ng/hr), leptin (50 ng/hr), or vehicle were surgically installed subcutaneously in the backs of 3-month old mice. For the postnatal rescue of cognitive functions in Osteocalcin−/− mice, osteocalcin (10 ng/hour) or vehicle were delivered intrasubventricularly (icv) as previously described (Ducy et al., 2000, Cell 100:197-207). Leptin and osteocalcin content in sera and tissues were determined by ELISA.
To understand how this behavioral phenotype develops, whether osteocalcin crosses the blood brain barrier (BBB) was tested by installing pumps that subcutaneously delivered vehicle or uncarboxylated osteocalcin (50 ng/hour) in three-month-old Osteocalcin−/− mice. The positive control for this experiment was subcutaneous infusion of leptin (50 ng/hour) in 3 month-old ob/ob mice, since leptin is known to cross the BBB (Banks et al., 1996, Peptides 17:305-311). Seven days later, osteocalcin and leptin content were measured in blood, bone, and in various parts of the brain in Osteocalcin−/− and ob/ob mice, respectively.

NCCCC(O)(P(=O)(O)O)P(=O)(O)O [alendronate]
bone resorption (3 month-old WT mice; 3 week-long treatment): inhibited bone resorption | circulating levels of bioactive osteocalcin (3 month-old WT mice; 3 week-long treatment): decreased the circulating levels of bioactive osteocalcin | learning in the MWMT (3 month-old WT mice; alendronate-treated mice): delay in learning in the MWMT | memory in NOR (3 month-old WT mice; alendronate-treated mice): memory deficit in NOR

CN1CC(=O)N=C1N.NCCc1c[nH]c2ccc(O)cc12.O=S(=O)(O)O [serotonin creatinine sulfate complex, reference compound]
action potentials in dorsal raphe 5-HT neurons [1]: inhibited action potentials

B1: leptin (protein, UniProt P41160 22-167, looked up)
Leptin: VPIQKVQDDTKTLIKTIVTRINDISHTQSVSAKQRVTGLDFIPGLHPILSLSKMDQTLAVYQQVLTSLPSQNVLQIANDLENLRDLLHLLAFSKSCSLPQTSGLQKPESLDGVLEASLYSTEVVALSRLQGSLQDILQQLDVSPEC
notes: adipocyte-derived hormone, positive control known to cross the BBB
Tph2 expression [2]: reduced | leptin content in parts of the brain [3]: could be detected in the brainstem and hypothalamus
